Laboratory results from US20220389515A1, “USE OF BIOMARKERS TO PREDICT CLINICAL SENSITIVITY TO 2-(4-CHLOROPHENYL)-N-((2-(2,6-DIOXOPIPERIDIN-3-YL)-1-OXOISOINDOLIN-5-YL)METHYL)-2,2-DIFLUOROACETAMIDE” (priority 2019, published 2022).

Key:
GCN2-mediated ISR = test: Immunoblot analysis of integrated stress response and apoptosis markers; assay type: cell-based, human
Protocol: (§1) The U937 GCN2−/− cell line is derived from a single clone of U937 parental cells stably infected with a lentiviral CRISPR vector targeting GCN2. […] Cells were incubated with DMSO or 200 nM Compound D and lysed at the indicated time points. Arrows pointing to bands in the blot on the right designate the cleaved forms of caspase-3. […] The U937 GCN2−/− cell line is derived from a single clone of U937 parental cells stably infected with a lentiviral CRISPR vector targeting GCN2. […] Cells were treated with DMSO or Compound D for 24 hours. On day 3 after Compound D treatment, cell proliferation was assessed by CTG. Result shown in all figure panels is representative of at least three biological replicates. Data in FIGS. 13C, 13D and 13E are shown as mean±SD, n=3 technical replicates.
(§2) To determine if the activation of the ISR by Compound D is solely mediated by GCN2, the effect of GCN2 ablation on Compound D response was evaluated.

U937 Cas9 cell lines = test: Cell proliferation assay (CTG, 5 days) in U937 cells after RNP electroporation knockout; assay type: cell-based, human
Source text: Next, the roles of additional negative regulators of mTOR were studied. To knockout the studied genes, an electroporation-based method was used where a ribonucleoprotein (RNP) consisting of the Cas9 protein and gene-targeting gRNA was directly delivered to the U937 cells. A crRNA-tracrRNA duplex was first prepared consisting of the crRNA with a 20 nt sequence specific to each target gene and the universal tracrRNA to guide the Cas9 nuclease to the genomic locus. The sgRNA sequences targeting CRBN, ATF4, GCN1, GCN2, DDIT4, TSC1, TSC2, or non-targeting (NT-1) and non-coding (NC-8) controls were selected from the Cellecta sgRNA library. After pre-coupling the Cas9 enzyme to the crRNA-tracrRNA duplex, the complex was mixed with one million U937 cells per sample in nucleofection solution (4D-Nucleofector X kit SE; Lonza). Cells were electroporated in a 4D nucleofector according to the manufacturer's instructions and plated into complete cell culture media.
Then a cell proliferation assay was performed. Compound D dissolved in DMSO was injected into 96-well cell culture plates using a HP D300 digital dispenser in triplicate for each final Compound D concentration. […] After 5 days, cell proliferation was assessed using CTG (CellTiter-Glo) according to the manufacturer's instructions to assess the effects of Compound D on proliferation of each cell line.

GSPT1 = target: T1, GSPT1 (Homo sapiens, UniProt P15170+Q96SW2); test: Tandem mass tag (TMT) quantitative mass spectrometry of the global proteome in KG-1; assay type: cell-based; settings: 0.1 μM, 4 hours
T1 construct: endogenous in cells; host or cells: KG-1 (TMT proteomics); KG1, U937 / U937-Cas9, MOLM-13, OCI-AML2 (immunoblots)
T1 sequence (P15170 1-637 isoform P15170-3): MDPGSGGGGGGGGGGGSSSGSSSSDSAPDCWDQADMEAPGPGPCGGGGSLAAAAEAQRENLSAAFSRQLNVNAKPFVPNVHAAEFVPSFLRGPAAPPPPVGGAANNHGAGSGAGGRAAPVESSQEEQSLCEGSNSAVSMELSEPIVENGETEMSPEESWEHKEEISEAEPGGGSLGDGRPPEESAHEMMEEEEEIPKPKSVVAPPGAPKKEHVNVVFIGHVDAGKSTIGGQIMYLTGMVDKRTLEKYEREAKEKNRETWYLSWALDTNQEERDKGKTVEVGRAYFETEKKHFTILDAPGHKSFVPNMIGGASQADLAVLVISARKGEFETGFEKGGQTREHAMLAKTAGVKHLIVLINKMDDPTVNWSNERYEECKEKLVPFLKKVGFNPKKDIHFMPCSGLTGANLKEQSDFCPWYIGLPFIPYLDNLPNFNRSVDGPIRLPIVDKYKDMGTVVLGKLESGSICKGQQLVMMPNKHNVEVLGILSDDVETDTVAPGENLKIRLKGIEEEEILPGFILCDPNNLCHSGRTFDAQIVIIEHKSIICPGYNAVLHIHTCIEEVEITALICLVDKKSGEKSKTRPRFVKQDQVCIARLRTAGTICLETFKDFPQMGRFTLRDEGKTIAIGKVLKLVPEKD
T1 sequence (Q96SW2 whole entry): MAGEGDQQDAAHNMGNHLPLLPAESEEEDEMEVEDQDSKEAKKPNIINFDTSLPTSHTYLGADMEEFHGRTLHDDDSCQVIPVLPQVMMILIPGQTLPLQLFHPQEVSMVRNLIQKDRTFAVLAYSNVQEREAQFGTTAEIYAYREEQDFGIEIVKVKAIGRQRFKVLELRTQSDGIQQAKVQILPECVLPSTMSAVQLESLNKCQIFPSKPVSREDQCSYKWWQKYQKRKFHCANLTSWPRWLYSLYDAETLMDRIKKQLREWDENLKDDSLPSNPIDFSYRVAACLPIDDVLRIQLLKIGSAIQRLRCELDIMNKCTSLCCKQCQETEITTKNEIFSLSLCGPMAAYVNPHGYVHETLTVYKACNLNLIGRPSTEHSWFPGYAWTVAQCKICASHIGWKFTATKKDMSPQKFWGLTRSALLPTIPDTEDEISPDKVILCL
T1 sequence (Q16531 whole entry partner): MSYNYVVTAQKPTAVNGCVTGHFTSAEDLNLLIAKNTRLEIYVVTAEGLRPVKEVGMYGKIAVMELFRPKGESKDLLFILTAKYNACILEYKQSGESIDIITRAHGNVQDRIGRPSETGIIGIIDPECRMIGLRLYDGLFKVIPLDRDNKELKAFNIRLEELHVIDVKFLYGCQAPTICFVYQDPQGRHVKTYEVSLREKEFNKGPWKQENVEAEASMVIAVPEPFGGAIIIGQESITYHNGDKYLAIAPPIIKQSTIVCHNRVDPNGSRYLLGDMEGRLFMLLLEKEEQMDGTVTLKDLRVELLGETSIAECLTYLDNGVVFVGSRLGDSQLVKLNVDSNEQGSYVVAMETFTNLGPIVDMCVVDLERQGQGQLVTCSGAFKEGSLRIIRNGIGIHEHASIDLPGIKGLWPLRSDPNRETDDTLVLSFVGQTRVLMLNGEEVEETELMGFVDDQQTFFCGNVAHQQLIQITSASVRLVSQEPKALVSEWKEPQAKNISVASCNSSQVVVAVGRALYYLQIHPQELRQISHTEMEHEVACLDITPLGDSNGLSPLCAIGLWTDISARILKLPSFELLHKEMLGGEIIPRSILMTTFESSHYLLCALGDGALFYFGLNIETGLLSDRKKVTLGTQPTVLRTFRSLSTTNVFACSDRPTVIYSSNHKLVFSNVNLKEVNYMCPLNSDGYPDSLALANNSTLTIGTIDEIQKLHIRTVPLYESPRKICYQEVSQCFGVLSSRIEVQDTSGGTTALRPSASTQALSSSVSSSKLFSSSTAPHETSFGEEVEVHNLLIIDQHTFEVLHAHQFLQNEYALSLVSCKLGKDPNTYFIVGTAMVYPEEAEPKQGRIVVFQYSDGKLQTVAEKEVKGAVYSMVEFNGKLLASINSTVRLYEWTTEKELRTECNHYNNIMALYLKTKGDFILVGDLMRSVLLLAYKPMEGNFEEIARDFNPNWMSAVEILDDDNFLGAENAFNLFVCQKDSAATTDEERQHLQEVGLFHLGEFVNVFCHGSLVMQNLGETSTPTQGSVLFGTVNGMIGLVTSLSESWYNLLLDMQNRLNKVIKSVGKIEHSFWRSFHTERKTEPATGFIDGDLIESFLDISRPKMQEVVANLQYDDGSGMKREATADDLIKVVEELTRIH
Protocol: FIG. 2A illustrates the volcano plot of differentially abundant proteins in response to Compound D treatment relative to the DMSO control. KG1 cells were treated with DMSO or 100 nM Compound D for 4 hours and subjected to TMT proteomics analysis. The X-axis denotes the log 2-fold change of Compound D versus the DMSO control for each protein. P-values were corrected for multiple hypothesis testing using the Benjamini-Hoschberg method to arrive at an adjusted-P-value (adj-P, also known as a false discovery rate). The y-axis denotes the −log 10 (adj-P) values indicating statistical significance such that proteins lying above the dotted red line are statistically significant findings with adjusted P-values<0.05. FIG. 2B illustrates the immunoblot analysis of KG1 and U937 cells treated with DMSO or Compound D for 4 hours. Where indicated, cells were pretreated with Bortezomib or MLN4924 for 30 minutes. […]
Like all other cereblon modulators, Compound D contains a glutarimide ring (FIG. 1A) that can bind cereblon and redirect it to target neosubstrates for degradation. Thus, the effect of Compound D on the global proteome in AML cell line KG-1 was assessed using tandem mass tag (TMT) quantitative mass spectrometry.

U937 GCN2-/- cells = test: Immunoblot and proliferation (CTG, day 3) of U937 GCN2-/- cells re-expressing GCN2; assay type: cell-based, human; settings: not with mutants T899A/T904A, K619R, F1143L/R1144L
Protocol: as §1, §2

[1] = tested on: U937 Cas9 cell lines and OCI-AML2 Cas9 cell lines; test: Cell proliferation assay (CTG, 5 days) in sgRNA knockout Cas9 lines; assay type: cell-based, human
Protocol: Then, a cell proliferation assay was performed. Compound D dissolved in DMSO was injected into 96-well cell culture plates using a HP D300 digital dispenser in triplicate Compound D concentrations. One week after infection to knock-out the indicated genes, each of U937 Cas9 cell lines and OCI-AML2 Cas9 cell lines were plated in triplicate with 5000 cells in 100 μL complete culture media per well in the 96-well plates. After 5 days, cell proliferation was assessed using CTG (CellTiter-Glo) according to the manufacturer's instructions to assess the effects of Compound D on proliferation of each cell line.

`O=C1CCC(N2Cc3cc(CNC(=O)C(F)(F)c4ccc(Cl)cc4)ccc3C2=O)C(=O)N1` (stereo not shown) [Compound D, 2-(4-chlorophenyl)-N-((2-(2,6-dioxopiperidin-3-yl)-1-oxoisoindolin-5-yl)methyl)-2,2-difluoroacetamide] was tested, and the “activation of the ISR (eIF2a phosphorylation, ATF4 and targets)” value (GCN2-mediated ISR; U937 24 hours, KG-1 200 nM) was “triggered the rapid phosphorylation of eIF2a, accumulation of ATF4 and its transcriptional targets DDIT4, CHOP and ATF3”, the “apoptosis (cleaved caspase-3)” value (GCN2-mediated ISR; U937, KG-1 200 nM) was “subsequent induction of apoptosis” and the “ISR activation and caspase-3 cleavage after GCN2 knockout” value (GCN2-mediated ISR; U937 GCN2-/-, 24 hours) was “inhibited the phosphorylation of eIF2a, induction of ATF4 and its target gene DDIT4, and the cleavage of caspase-3”. The “anti-proliferative effects after depletion of GCN2, ATF4, GCN1, CRBN, DDIT4, TSC1, TSC2” value (U937 Cas9 cell lines; U937) was “diminished this effect”, the “anti-proliferative effects in control cells” value (U937 Cas9 cell lines; U937 parental and non-coding (NC-8) controls) was “dose-dependent anti-proliferative effects” and the GSPT1 protein abundance (GSPT1) was “significant reduction of GSPT1 protein abundance”. For the same compound, the “effect on the rest of the proteome” value (GSPT1) was “minimal effect on the rest of the proteome”, the “response after reintroduction of GCN2 wild-type” value (U937 GCN2-/- cells) was “significantly restored the response to Compound D” and the “anti-proliferative effects after depletion of TSC1 and TSC2” value ([1]; U937) was “diminished this effect”. The “anti-proliferative effects in control cells” value ([1]; parental, sgNT-1 and sgNC-8 controls) was “dose-dependent anti-proliferative effects”.
